Data published in ChEMBL document CHEMBL3046469, “Fungicidal Activities of 2-(Substituted Phenoxymethyl)phenyl-2-methoxyiminoacaetamide Derivatives” (1998).

Tests used:
Type in all cases: functional
[1] = system: Blumeria graminis f. sp. tritici; test: Fungicidal activity against Blumeria graminis f. sp. tritici assessed as wheat powdery mildew disease control at 7.8 ppm foliar application 48 24 hr before inoculation by preventive manner
Botrytis cinerea [2] = test: Fungicidal activity against Botryotinia fuckeliana assessed as cucumber gray mold disease control at 7.8 ppm foliar application […] at 22 +/- 2 degC by preventive manner
Podosphaera fuliginea [3] = test: Fungicidal activity against Podosphaera fuliginea assessed as cucumber powdery mildew control at 7.8 ppm foliar application 24 hr before inoculation at 23 +/- 2 degC by preventive manner
[4] = system: Pseudoperonospora cubensis; test: Fungicidal activity against Pseudoperonospora cubensis assessed as cucumber downy mildew disease control at 31.3 ppm foliar application 24 hr before inoculation onto the abaxial(untreated) surface of leaf by preventive manner
[5] = system: Pseudoperonospora cubensis; test: Fungicidal activity against Pseudoperonospora cubensis assessed as cucumber downy mildew disease control at 2 ppm foliar application 24 hr before inoculation onto the adaxial(treated) surface of leaf by preventive manner
Pyricularia oryzae [6] = test: Fungicidal activity against Magnaporthe oryzae assessed as rice blast disease control at 125 ppm foliar application for 24 hr before inoculation at 27 +/- 2 degC measured after 5 days by preventive manner
Thanatephorus cucumeris [7] = test: Fungicidal activity against Thanatephorus cucumeris assessed as rice sheath blight disease control at 125 ppm foliar application for 24 hr before inoculation at 26 +/- 2 degC measured after 5 days by preventive manner
Podosphaera fuliginea [8] = test: Fungicidal activity against Podosphaera fuliginea assessed as cucumber powdery mildew control at 31.3 ppm foliar application 24 hr before inoculation at 23 +/- 2 degC by preventive manner
[9] = system: Pseudoperonospora cubensis; test: Fungicidal activity against Pseudoperonospora cubensis assessed as cucumber downy mildew disease control at 7.8 ppm foliar application 24 hr before inoculation onto the adaxial(treated) surface of leaf by preventive manner
Pyricularia oryzae [10] = test: Fungicidal activity against Magnaporthe oryzae assessed as rice blast disease control at 31.3 ppm foliar application for 24 hr before inoculation at 27 +/- 2 degC measured after 5 days by preventive manner
[11] = system: Pseudoperonospora cubensis; test: Fungicidal activity against Pseudoperonospora cubensis assessed as cucumber downy mildew disease control at 7.8 ppm foliar application 24 hr before inoculation onto the abaxial(untreated) surface of leaf by preventive manner
Botrytis cinerea [12] = test: Fungicidal activity against Botryotinia fuckeliana assessed as cucumber gray mold disease control at 31.3 ppm foliar application […] at 22 +/- 2 degC by preventive manner
[13] = system: Blumeria graminis f. sp. tritici; test: Fungicidal activity against Blumeria graminis f. sp. tritici assessed as wheat powdery mildew disease control at 2 ppm foliar application for 48 hr before inoculation by preventive manner
[14] = system: Pseudoperonospora cubensis; test: Fungicidal activity against Pseudoperonospora cubensis assessed as cucumber downy mildew disease control at 125 ppm foliar application 24 hr before inoculation onto the abaxial(untreated) surface of leaf by preventive manner
Thanatephorus cucumeris [15] = test: Fungicidal activity against Thanatephorus cucumeris assessed as rice sheath blight disease control at 31.3 ppm foliar application for 24 hr before inoculation at 26 +/- 2 degC measured after 5 days by preventive manner
Podosphaera fuliginea [16] = test: Fungicidal activity against Podosphaera fuliginea assessed as cucumber powdery mildew control at 2 ppm foliar application 24 hr before inoculation at 23 +/- 2 degC by preventive manner
[17] = system: Pseudoperonospora cubensis; test: Fungicidal activity against Pseudoperonospora cubensis assessed as cucumber downy mildew disease control at 125 ppm foliar application 24 hr before inoculation onto the adaxial(treated) surface of leaf by preventive manner
Botrytis cinerea [18] = test: Fungicidal activity against Botryotinia fuckeliana assessed as cucumber gray mold disease control at 125 ppm foliar application […] at 22 +/- 2 degC by preventive manner
[19] = system: Blumeria graminis f. sp. tritici; test: Fungicidal activity against Blumeria graminis f. sp. tritici assessed as wheat powdery mildew disease control at 125 ppm foliar application for 48 hr before inoculation by preventive manner
Podosphaera fuliginea [20] = test: Fungicidal activity against Podosphaera fuliginea assessed as cucumber powdery mildew control at 125 ppm foliar application 24 hr before inoculation at 23 +/- 2 degC by preventive manner
[21] = system: Blumeria graminis f. sp. tritici; test: Fungicidal activity against Blumeria graminis f. sp. tritici assessed as wheat powdery mildew disease control at 31.3 ppm foliar application for 48 hr before inoculation by preventive manner

Row | Structure (SMILES) | Activity (Botrytis cinerea [2]) | Activity (Podosphaera fuliginea [3]) | Activity [5] | Activity (Pyricularia oryzae [6]) | Activity (Thanatephorus cucumeris [7]) | Activity [9] | Activity (Pyricularia oryzae [10]) | Activity [14] | Activity [19] | also measured
1 | CNC(=O)/C(=N/OC)c1ccccc1COc1cc(Cl)cc(Cl)c1 | 90% | 90% | 90% | 90% | <90% | – | – | – | – | Activity [1]: 90%; Activity [4]: 90%
2 | CNC(=O)/C(=N/OC)c1ccccc1COc1cccc(F)c1 | – | – | – | – | 90% | 90% | 90% | – | – | Activity [1]: 90%; Activity (Podosphaera fuliginea [8]): 90%; Activity [11]: 90%; Activity (Botrytis cinerea [12]): 90%
3 | CNC(=O)/C(=N/OC)c1ccccc1COc1ccc(F)cc1 | 90% | 90% | – | 90% | 90% | 90% | – | – | – | Activity [13]: 90%; Activity [4]: 90%
4 | CNC(=O)/C(=N/OC)c1ccccc1COc1ccccc1Cl | 90% | 90% | – | – | 90% | 90% | 90% | 90% | – | Activity [13]: 90%
5 | CNC(=O)/C(=N/OC)c1ccccc1COc1cccc(Cl)c1 | 90% | 90% | 90% | – | – | – | 90% | – | – | Activity [1]: 90%; Activity (Thanatephorus cucumeris [15]): 90%; Activity [11]: 90%
6 | CNC(=O)/C(=N/OC)c1ccccc1COc1cccc(Br)c1 | 90% | 90% | 90% | 90% | <90% | – | – | – | – | Activity [11]: 90%
7 | CNC(=O)/C(=N/OC)c1ccccc1COc1ccc(Br)cc1 | 90% | 90% | – | – | <90% | 90% | 90% | – | – | Activity [13]: 90%; Activity [4]: 90%
8 | CNC(=O)/C(=N/OC)c1ccccc1COc1ccc(C(F)(F)F)cc1 | 90% | 90% | – | – | <90% | 90% | 90% | – | – | Activity [1]: 90%; Activity [11]: 90%
9 | CNC(=O)/C(=N/OC)c1ccccc1COc1ccc(C)cc1 | 90% | – | 90% | – | <90% | – | 90% | <90% | – | Activity [13]: 90%; Activity (Podosphaera fuliginea [16]): 90%
10 | C#CCOc1ccccc1OCc1ccccc1/C(=N\OC)C(=O)NC | – | – | – | 90% | <90% | – | – | <90% | <90% | Activity [17]: 90%; Activity (Botrytis cinerea [18]): <90%; Activity (Podosphaera fuliginea [20]): 90%
11 | C#CCOc1cccc(OCc2ccccc2/C(=N\OC)C(=O)NC)c1 | – | – | 90% | 90% | <90% | – | – | 90% | 90% | Activity (Podosphaera fuliginea [20]): 90%; Activity (Botrytis cinerea [12]): 90%
12 | C#CCOc1ccc(OCc2ccccc2/C(=N\OC)C(=O)NC)cc1 | 90% | 90% | – | – | <90% | 90% | 90% | – | 90% | Activity [4]: 90%
13 | CNC(=O)/C(=N/OC)c1ccccc1COc1ccccc1-c1ccccc1 | – | – | – | 90% | <90% | – | – | <90% | <90% | Activity [17]: 90%; Activity (Botrytis cinerea [18]): <90%; Activity (Podosphaera fuliginea [20]): 90%
14 | CNC(=O)/C(=N/OC)c1ccccc1COc1ccc(/C=C\c2ccccc2)cc1 | – | – | – | <90% | <90% | – | – | <90% | 90% | Activity (Botrytis cinerea [18]): <90%; Activity (Podosphaera fuliginea [20]): <90%
15 | CNC(=O)/C(=N/OC)c1ccccc1COc1ccc(C(=O)c2ccccc2)cc1 | 90% | – | – | 90% | <90% | – | – | <90% | 90% | Activity (Podosphaera fuliginea [20]): <90%
16 | CNC(=O)/C(=N/OC)c1ccccc1COc1cccc([N+](=O)[O-])c1 | – | – | – | 90% | <90% | 90% | – | <90% | 90% | Activity (Podosphaera fuliginea [20]): <90%

Row | Structure (SMILES) | Activity (Botrytis cinerea [2]) | Activity (Podosphaera fuliginea [3]) | Activity [5] | Activity (Pyricularia oryzae [6]) | Activity (Thanatephorus cucumeris [7]) | Activity [9] | Activity (Pyricularia oryzae [10]) | Activity [14] | Activity [19] | also measured
17 | CNC(=O)/C(=N/OC)c1ccccc1COc1cccc(F)c1F | 90% | 90% | – | <90% | <90% | 90% | – | <90% | – | Activity [13]: 90%
18 | CNC(=O)/C(=N/OC)c1ccccc1COc1cc(F)ccc1F | 90% | 90% | 90% | – | – | – | 90% | – | – | Activity [13]: 90%; Activity (Thanatephorus cucumeris [15]): 90%; Activity [11]: 90%
19 | CNC(=O)/C(=N/OC)c1ccccc1COc1c(F)cccc1F | – | 90% | – | – | 90% | 90% | 90% | – | – | Activity [1]: 90%; Activity [4]: 90%; Activity (Botrytis cinerea [12]): 90%
20 | CNC(=O)/C(=N/OC)c1ccccc1COc1cc(F)cc(F)c1 | 90% | 90% | – | – | 90% | 90% | 90% | – | – | Activity [13]: 90%; Activity [4]: 90%
21 | CNC(=O)/C(=N/OC)c1ccccc1COc1cccc(Cl)c1Cl | – | – | 90% | – | <90% | – | 90% | <90% | – | Activity [21]: 90%; Activity (Botrytis cinerea [12]): 90%; Activity (Podosphaera fuliginea [16]): 90%
22 | CNC(=O)/C(=N/OC)c1ccccc1COc1ccc(Cl)c(Cl)c1 | 90% | – | – | – | <90% | 90% | 90% | – | – | Activity [1]: 90%; Activity [4]: 90%; Activity (Podosphaera fuliginea [16]): 90%
23 | CNC(=O)/C(=N/OC)c1ccccc1COc1c(C)cccc1C | – | – | – | 90% | <90% | – | – | <90% | 90% | Activity [17]: <90%; Activity (Botrytis cinerea [18]): 90%; Activity (Podosphaera fuliginea [20]): 90%
24 | CNC(=O)/C(=N/OC)c1ccccc1COc1cc(C)cc(C)c1 | 90% | 90% | 90% | – | – | – | 90% | <90% | – | Activity [13]: 90%; Activity (Thanatephorus cucumeris [15]): 90%
25 | CNC(=O)/C(=N/OC)c1ccccc1COc1cc(Cl)cc(Cl)c1Cl | 90% | – | 90% | <90% | <90% | – | – | <90% | – | Activity [21]: 90%; Activity (Podosphaera fuliginea [16]): 90%
26 | CNC(=O)/C(=N/OC)c1ccccc1COc1cc(Cl)c(Cl)cc1Cl | 90% | – | 90% | – | – | – | 90% | – | – | Activity (Thanatephorus cucumeris [15]): 90%; Activity [21]: 90%; Activity [4]: 90%; Activity (Podosphaera fuliginea [16]): 90%
27 | CNC(=O)/C(=N/OC)c1ccccc1COc1c(C)ccc(C)c1C | – | – | – | 90% | <90% | – | – | 90% | <90% | Activity [17]: <90%; Activity (Botrytis cinerea [18]): <90%; Activity (Podosphaera fuliginea [20]): <90%
28 | CNC(=O)/C(=N/OC)c1ccccc1COc1c(C)cc(C)cc1C | – | – | – | 90% | <90% | 90% | – | <90% | 90% | Activity (Podosphaera fuliginea [20]): 90%; Activity (Botrytis cinerea [12]): 90%
29 | CNC(=O)/C(=N/OC)c1ccccc1COc1cc(C)c(C)cc1Cl | 90% | 90% | 90% | 90% | <90% | – | – | <90% | 90% | –
30 | CNC(=O)/C(=N/OC)c1ccccc1COc1cc(C)c(Cl)c(C)c1 | 90% | 90% | 90% | – | <90% | – | 90% | 90% | – | Activity [1]: 90%
31 | CNC(=O)/C(=N/OC)c1ccccc1COc1ccccc1F | 90% | 90% | – | – | 90% | 90% | 90% | – | – | Activity [11]: 90%
